Where two headings read alike, the source gives them in different places.
Tests used:
Assay type in all cases: cell-based, Escherichia coli
[1] = test system: E. coli EKO-35; assay: microbe, parasite or virus in culture; settings: for Fold change of MICs: EKO-35 compared to EKO-35 (reference); for MIC: Escherichia coli
In short: (§1)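 MIC derived from pre-incubation-corrected OD600 after 18 h growth at 37° C. (900 rpm) in MHB II. Inoculum was cells from 18 h LB culture adjusted to OD600 ~1.0 in PBS, then diluted 1/2000; compounds two-fold serially titrated in duplicate, DMSO as solvent control.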

[2] = test system: E. coli ΔtolC; assay: microbe, parasite or virus in culture; settings: for MIC: Escherichia coli, 18 h, read-out: Minimum Inhibitory Concentration, ΔtolC; for Minimum inhibitory concentration (MIC), ΔtolC: Table 10, without pore
In short: as §1

[3] = test system: wild-type E. coli K-12 str. BW25113; assay: microbe, parasite or virus in culture; settings: for MIC: Escherichia coli
In short: as §1

[4] = test system: EKO-35 araC::acrBD408A; assay: MIC susceptibility profiling, efflux platform; settings: for Fold change of MICs: EKO-35 araC::acrBD408A compared to EKO-35
In short: as §1

[5] = test system: EKO-35 araC::acrEF; assay: MIC susceptibility profiling, efflux platform; settings: for Fold change of MICs: EKO-35 araC::acrEF compared to EKO-35
In short: as §1

[6] = test system: EKO-35 araC::mdtBC; assay: MIC susceptibility profiling, efflux platform; settings: for Fold change of MICs: EKO-35 araC::mdtBC compared to EKO-35
In short: as §1

[7] = test system: wild-type (WT) K-12-Pore; assay: microbe, parasite or virus in culture; settings: for MIC: Escherichia coli
In short: (§2)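 Strains carry the fhuA ΔC/Δ4L pore integrated between glmS and pstS under a constitutive promoter, with pore activity checked by vancomycin susceptibility. Overnight LB cultures were adjusted in PBS pH 7.4 to OD600 ~1.0 and diluted 1/2000 into MHB II. 2-fold compound titrations were read by OD600 after 18 h at 37 °C.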

[8] = test system: ΔtolC-Pore; assay: microbe, parasite or virus in culture; settings: for MIC: Escherichia coli, 18 h, read-out: Minimum inhibitory concentration, ΔtolC-Pore; for Minimum inhibitory concentration (MIC), Pore ΔtolC: Table 10, with pore
In short: as §2

[9] = test system: EKO-35-Pore; assay: MIC susceptibility profiling, porinated strain; settings: for Fold changes of MICs: EKO-35-Pore compared to EKO-35-Pore (reference); for MIC: Escherichia coli
In short: as §2

[10] = test system: EKO-35 araC::acrB Pore; assay: MIC susceptibility profiling, porinated efflux platform; settings: for Fold changes of MICs: EKO-35 araC::acr-B Pore compared to EKO-35-Pore
In short: as §2

[11] = test system: EKO-35 araC::acrBD408A Pore; assay: as above; settings: for MIC: Escherichia coli, read-out: Minimum inhibitory concentration; for Fold changes of MICs: EKO-35 araC::acrBD408A Pore compared to EKO-35-Pore
In short: as §2

[12] = test system: EKO-35 araC::acrD Pore; assay: as above; settings: for Fold changes of MICs: EKO-35 araC::acrD Pore compared to EKO-35-Pore
In short: as §2

[13] = test system: EKO-35 araC::acrEF Pore; assay: as above; settings: for Fold changes of MICs: EKO-35 araC::acrEF Pore compared to EKO-35-Pore
In short: as §2

[14] = test system: EKO-35 araC::emrAB Pore; assay: as above; settings: for Fold changes of MICs: EKO-35 araC::emrAB Pore compared to EKO-35-Pore
In short: as §2

[15] = test system: EKO-35 araC::emrKY Pore; assay: as above; settings: for Fold changes of MICs: EKO-35 araC::emrKY Pore compared to EKO-35-Pore
In short: as §2

[16] = test system: EKO-35 araC::macAB Pore; assay: as above; settings: for Fold changes of MICs: EKO-35 araC::macAB Pore compared to EKO-35-Pore
In short: as §2

[17] = test system: EKO-35 araC::mdtBC Pore; assay: as above; settings: for Fold changes of MICs: EKO-35 araC::mdtBC Pore compared to EKO-35-Pore
In short: as §2

[18] = test system: EKO-35 araC::mdtEF Pore; assay: as above; settings: for Fold changes of MICs: EKO-35 araC::mdtEF Pore compared to EKO-35-Pore
In short: as §2

[19] = test system: EKO-35 araC::mexCD Pore; assay: as above; settings: for Fold changes of MICs: EKO-35 araC::mexCD Pore compared to EKO-35-Pore
In short: as §2

[20] = EKO-35 araC::acrBD408A Pore, technical duplicate
[21] = Table 10, without pore, technical duplicate
[22] = Table 13A, non-porinated, technical duplicate
[23] = Table 13B, non-porinated, technical duplicate
[24] = Table 10, with pore, technical duplicate
[25] = Table 14A, porinated, technical duplicate

In the case of NCCCNCCCCNCCCN [Spermine], the “Fold change of MICs” value [1] is reported as 1 fold, the MIC ([1]; EKO35, read-out: Minimum Inhibitory Concentration, EKO-35) is reported as 2000 µg/mL and the MIC ([1]; EKO35, read-out: Minimum inhibitory concentration (MIC), EKO-35) is reported as 2000 µg/mL. The MIC [2] was 2000 µg/mL, the “Minimum inhibitory concentration (MIC), ΔtolC” value ([2]; technical duplicate) was 2000 µg/mL and the MIC ([3]; BW25113, read-out: Minimum Inhibitory Concentration, K-12) was 2000 µg/mL. For the same compound, the MIC ([3]; BW25113, read-out: Minimum inhibitory concentration (MIC), K-12) was 2000 µg/mL, the “Fold change of MICs” value [4] was 1 fold and the “Fold change of MICs” value [5] was 1 fold. The “Fold change of MICs” value [6] was 1 fold, the MIC ([7]; read-out: Minimum inhibitory concentration (MIC), Pore K-12) was 2000 µg/mL and the MIC ([7]; read-out: Minimum inhibitory concentration, K-12 (WT)-Pore) was 2000 µg/mL. For the same compound, the MIC [8] was 2000 µg/mL, the “Minimum inhibitory concentration (MIC), Pore ΔtolC” value ([8]; technical duplicate) was 2000 µg/mL and the “Fold changes of MICs” value [9] was 1 fold. The “Fold changes of MICs” value [10] was 1 fold, the MIC [11, 20] was 500 µg/mL and the “Fold changes of MICs” value [12] was 1 fold. The “Fold changes of MICs” value [13] was 1 fold, the “Fold changes of MICs” value [14] was 1 fold and the “Fold changes of MICs” value [15] was 1 fold. For the same compound, the “Fold changes of MICs” value [16] was 1 fold, the “Fold changes of MICs” value [17] was 1 fold and the “Fold changes of MICs” value [18] was 1 fold. For the same compound, the “Fold changes of MICs” value [19] was 1 fold.
With CC(C)c1ccc(C=C(C#N)c2nc3ccccc3[nH]2)cc1 [compound 12] the “Fold change of MICs” value [1] was 1 fold, the “Minimum inhibitory concentration (MIC), EKO-35” value [1, 21] was 320 µg/mL and the “Minimum Inhibitory Concentration, EKO-35” value [1, 22] was 320 µg/mL. For the same compound, the “Minimum inhibitory concentration (MIC), ΔtolC” value ([2]; technical duplicate) was 1.25 µg/mL, the “Minimum Inhibitory Concentration, ΔtolC” value [2, 22] was 1.25 µg/mL and the “Minimum inhibitory concentration (MIC), K-12” value [3, 21] was 320 µg/mL. The “Minimum Inhibitory Concentration, K-12” value [3, 22] was 320 µg/mL, the “Fold change of MICs” value [4] was 1 fold and the “Minimum Inhibitory Concentration, EKO-35 araC::acrBD408A” value [4, 23] was 320 µg/mL. For the same compound, the “Fold change of MICs” value [5] was 1 fold, the “Minimum Inhibitory Concentration, EKO-35 araC::acrEF” value [5, 22] was 320 µg/mL and the “Fold change of MICs” value [6] was 1 fold. The “Minimum Inhibitory Concentration, EKO-35 araC::mdtBC” value [6, 23] was 320 µg/mL, the “Minimum inhibitory concentration (MIC), Pore K-12” value [7, 24] was 320 µg/mL and the “Minimum inhibitory concentration, K-12 (WT)-Pore” value [7, 25] was 320 µg/mL. The “Minimum inhibitory concentration (MIC), Pore ΔtolC” value ([8]; technical duplicate) was 0.625 µg/mL, the “Minimum inhibitory concentration, ΔtolC-Pore” value [8, 25] was 0.625 µg/mL and the “Fold changes of MICs” value [9] was 1 fold. The “Minimum inhibitory concentration (MIC), Pore EKO-35” value [9, 24] was 160 µg/mL, the “Minimum inhibitory concentration, EKO-35-Pore” value [9, 25] was 160 µg/mL and the “Fold changes of MICs” value [10] was 2 fold. For the same compound, the “Minimum inhibitory concentration, EKO-35 araC::acrB Pore” value [10, 25] was 320 µg/mL, the “Fold changes of MICs” value [11] was 2 fold and the Minimum inhibitory concentration [11, 20] was 320 µg/mL. The “Fold changes of MICs” value [12] was 1 fold, the “Minimum inhibitory concentration, EKO-35 araC::acrD Pore” value [12, 25] was 160 µg/mL and the “Fold changes of MICs” value [13] was 2 fold. For the same compound, the “Minimum inhibitory concentration, EKO-35 araC::acrEF Pore” value [13, 25] was 320 µg/mL, the “Fold changes of MICs” value [14] was 2 fold and the Minimum inhibitory concentration ([14]; EKO-35 araC::emrAB Pore, technical duplicate) was 320 µg/mL. The “Fold changes of MICs” value [15] was 2 fold, the Minimum inhibitory concentration ([15]; EKO-35 araC::emrKY Pore, technical duplicate) was 320 µg/mL and the “Fold changes of MICs” value [16] was 2 fold. For the same compound, the Minimum inhibitory concentration ([16]; EKO-35 araC::macAB Pore, technical duplicate) was 320 µg/mL, the “Fold changes of MICs” value [17] was 2 fold and the Minimum inhibitory concentration ([17]; EKO-35 araC::mdtBC Pore, technical duplicate) was 320 µg/mL. For the same compound, the “Minimum inhibitory concentration, EKO-35 araC::mdtEF Pore” value [18, 25] was 320 µg/mL, the “Fold changes of MICs” value [19] was 2 fold and the Minimum inhibitory concentration ([19]; EKO-35 araC::mexCD Pore, technical duplicate) was 320 µg/mL.
For COc1cccc2c1C(=O)c1c(O)c3c(c(O)c1C2=O)C[C@@](O)(C(=O)CO)C[C@@H]3O[C@H]1C[C@H](N)[C@H](O)[C@H](C)O1 [doxorubicin], the “Fold change of MICs” value [1] was 1 fold, the MIC ([1]; EKO35, Table 10, without pore, technical duplicate, read-out: Minimum inhibitory concentration (MIC), EKO-35) was 1.56 µg/mL and the MIC ([1]; EKO35, Table 13A, non-porinated, technical duplicate, read-out: Minimum Inhibitory Concentration, EKO-35) was 1.56 µg/mL. The MIC [2] was 1.56 µg/mL, the “Minimum inhibitory concentration (MIC), ΔtolC” value ([2]; technical duplicate) was 1.563 µg/mL and the MIC ([3]; BW25113, Table 10, without pore, technical duplicate, read-out: Minimum inhibitory concentration (MIC), K-12) was 200 µg/mL. The MIC ([3]; BW25113, Table 13A, non-porinated, technical duplicate, read-out: Minimum Inhibitory Concentration, K-12) was 200 µg/mL, the “Fold change of MICs” value [4] was 1 fold and the MIC ([4]; Escherichia coli, Table 13B, non-porinated, technical duplicate, read-out: Minimum Inhibitory Concentration, EKO-35 araC::acrBD408A) was 1.56 µg/mL. For the same compound, the “Fold change of MICs” value [5] was 64 fold, the MIC ([5]; Escherichia coli, Table 13A, non-porinated, technical duplicate, read-out: Minimum Inhibitory Concentration, EKO-35 araC::acrEF) was 100 µg/mL and the “Fold change of MICs” value [6] was 1 fold. For the same compound, the MIC ([6]; Escherichia coli, Table 13B, non-porinated, technical duplicate, read-out: Minimum Inhibitory Concentration, EKO-35 araC::mdtBC) was 1.56 µg/mL, the MIC ([7]; Table 10, with pore, technical duplicate, read-out: Minimum inhibitory concentration (MIC), Pore K-12) was 50 µg/mL and the MIC ([7]; Table 14A, porinated, technical duplicate, read-out: Minimum inhibitory concentration, K-12 (WT)-Pore) was 50 µg/mL. The MIC [8] was 0.781 µg/mL, the “Minimum inhibitory concentration (MIC), Pore ΔtolC” value ([8]; technical duplicate) was 0.781 µg/mL and the “Fold changes of MICs” value [9] was 1 fold. The MIC ([9]; Table 10, with pore, technical duplicate, read-out: Minimum inhibitory concentration (MIC), Pore EKO-35) was 0.781 µg/mL, the MIC ([9]; Table 14A, porinated, technical duplicate, read-out: Minimum inhibitory concentration, EKO-35-Pore) was 0.781 µg/mL and the “Fold changes of MICs” value [10] was 64 fold. The “Fold changes of MICs” value [11] was 1 fold, the MIC [11, 20] was 0.781 µg/mL and the “Fold changes of MICs” value [12] was 1 fold. For the same compound, the MIC ([12]; Escherichia coli, Table 14A, porinated, technical duplicate, read-out: Minimum inhibitory concentration, EKO-35 araC::acrD Pore) was 0.781 µg/mL, the “Fold changes of MICs” value [13] was 16 fold and the MIC ([13]; Escherichia coli, Table 14A, porinated, technical duplicate, read-out: Minimum inhibitory concentration, EKO-35 araC::acrEF Pore) was 12.5 µg/mL. For the same compound, the “Fold changes of MICs” value [14] was 1 fold, the MIC ([14]; Escherichia coli, EKO-35 araC::emrAB Pore, technical duplicate, read-out: Minimum inhibitory concentration) was 0.781 µg/mL and the “Fold changes of MICs” value [15] was 1 fold. For the same compound, the MIC ([15]; Escherichia coli, EKO-35 araC::emrKY Pore, technical duplicate, read-out: Minimum inhibitory concentration) was 0.781 µg/mL, the “Fold changes of MICs” value [16] was 1 fold and the MIC ([16]; Escherichia coli, EKO-35 araC::macAB Pore, technical duplicate, read-out: Minimum inhibitory concentration) was 0.781 µg/mL. For the same compound, the “Fold changes of MICs” value [17] was 4 fold, the MIC ([17]; Escherichia coli, EKO-35 araC::mdtBC Pore, technical duplicate, read-out: Minimum inhibitory concentration) was 3.12 µg/mL and the “efflux pump-mediated resistance vs EKO-35-Pore” value ([17]; MdtBC with the pore) was “associated with resistance”. The “Fold changes of MICs” value [18] was 32 fold, the MIC ([18]; Escherichia coli, Table 14A, porinated, technical duplicate, read-out: Minimum inhibitory concentration, EKO-35 araC::mdtEF Pore) was 25 µg/mL and the “Fold changes of MICs” value [19] was 4 fold. It also gave an MIC ([19]; Escherichia coli, EKO-35 araC::mexCD Pore, technical duplicate, read-out: Minimum inhibitory concentration) of 3.12 µg/mL.
